Drawing on patent US12371454B2, “Cyclic peptide compound having Kras inhibitory action” (priority 2019, dated 2025), this text covers IC50 for seven molecules.

For orientation: IC50 means the concentration at which inhibition is half-maximal.

The structures appear in SMILES notation. Starred links: 1 amine or outer side, 2 acyl side, 3 side chain; linkers in the order of their positions; H or OH if unused. Positions of bridges follow the written chain, without caps; N, C: chain ends. Non-standard residues stand in square brackets, D forms with d. Residues, ends and D or L forms follow the SMILES beside them. *: point of attachment. hPhe(3-Cl-4-CF3) = N[C@@H](CCc1ccc(C(F)(F)F)c(Cl)c1)C(=O)O; 3Oxa8azabicyclo(3.2.1)octane = C1CC2COCC1N2*; NMeAbu(4,4,4-F3) = CN[C@@H](CC(F)(F)F)C(=O)O; NMePhe(4-Me) = CN[C@@H](Cc1ccc(C)cc1)C(=O)O; NMedβ3hAla = C[C@H](CC(=O)[*:2])N(C)[*:1]; NMeAla(cPr) = CN[C@@H](CC1CC1)C(=O)O; NMeCha = CN[C@@H](CC1CCCCC1)C(=O)O; NMeChg = CN[C@H](C(=O)O)C1CCCCC1; NMeD = CN[C@@H](CC(=O)O)C(=O)O; NMeL = CN[C@@H](CC(C)C)C(=O)O; NEtAla = CCN[C@@H](C)C(=O)O; NMeV = CN[C@H](C(=O)O)C(C)C; NMeS = CN[C@@H](CO)C(=O)O; Ac6c = NC1(C(=O)O)CCCCC1; Morpholide = C1CN(*)CCO1; NMeA = CN[C@@H](C)C(=O)O; Piperidide = C1CCN(*)CC1; Ac5c = NC1(C(=O)O)CCCC1; Aze = O=C(O)[C@@H]1CCN1; Sar = CNCC(=O)O; Propyl = CCC*

Test [1] has as its target T1, Kras and SOS1 (biotin-tagged human Kras loaded with GDP, His-tagged human SOS1) (Homo sapiens, UniProt P01116, G12D).
T1 construct: made in house; host or cells: E. coli (stated for Kras only)
In words: Protein-protein interaction inhibition between Kras and SOS1 (KrasGl2D-SOS PPI) using AlphaScreen. The format is binding. To be noted: AlphaScreen; biotin-tagged human Kras loaded with GDP, His-tagged human SOS1; read-out: KRAS G12D-SOS PPI IC50. An outline of the steps: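 Read-out is acceptor-bead light at 520-620 nm, arising when 680 nm-irradiated nickel donor beads pass singlet oxygen to streptavidin acceptors. The bead pair links His-tagged SOS1 with biotin-tagged, GDP-bound Kras from E. coli.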
In general terms: Alpha assays give light when donor and acceptor beads are brought close together.

Test [2] concerns Human pancreatic cancer cell line AsPC-1. Put plainly: Measurement of AsPC-1 cell growth inhibition (AsPC-1 CGI). The format is cell-based. To be noted: 96 h. The gist of the method:
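AsPC-1 cells in 15% FBS RPMI-1640 were exposed to test compound for 96 hours at 37° C, with CellTiter-Glo as endpoint.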

T1 sequence (P01116 1-188 isoform P01116-2 G12D): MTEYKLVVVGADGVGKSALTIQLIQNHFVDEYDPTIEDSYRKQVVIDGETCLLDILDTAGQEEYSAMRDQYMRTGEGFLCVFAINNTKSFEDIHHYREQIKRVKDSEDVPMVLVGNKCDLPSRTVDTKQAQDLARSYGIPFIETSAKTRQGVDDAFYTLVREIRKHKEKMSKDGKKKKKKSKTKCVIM

Regarding `CC[C@H](C)[C@@H]1NC(=O)[C@H](C)N(CC)C(=O)C[C@@H](C(=O)N2CCCCC2)N(C)C(=O)[C@H](C(C)C)N(C)C(=O)C2(CCCC2)NC(=O)[C@@H]2CCCN2C(=O)[C@H](CCc2ccc(C(F)(F)F)c(Cl)c2)NC(=O)CN(C)C(=O)[C@H](CC2CCCCC2)N(C)C(=O)CN(C)C(=O)CN(C)C1=O` [Compound 1051] ([NEtAla]I[Sar][Sar][NMeCha][Sar][hPhe(3-Cl-4-CF3)]P[Ac5c][NMeV][NMeD]-Piperidide; lactam N-11), the values for the half-inhibitory concentration (IC50) in test [1] and in test [2] were 2.9 nM and 100 to 500 nM, respectively.

As for `CC[C@H](C)[C@@H]1NC(=O)[C@H](CC(F)(F)F)N(C)C(=O)C[C@@H](C(=O)N2CCOCC2)N(C)C(=O)[C@H](C2CCCCC2)N(C)C(=O)C2(CCCC2)NC(=O)[C@@H]2CCCN2C(=O)[C@H](CCc2ccc(C(F)(F)F)c(Cl)c2)NC(=O)CN(C)C(=O)[C@H](Cc2ccc(C)cc2)N(C)C(=O)CN(C)C(=O)CN(C)C1=O` [Compound 1001] ([NMeAbu(4,4,4-F3)]I[Sar][Sar][NMePhe(4-Me)][Sar][hPhe(3-Cl-4-CF3)]P[Ac5c][NMeChg][NMeD]-Morpholide; lactam N-11), the IC50 in test [1] is 0.44 nM; in test [2], 20 to 50 nM.

With `CCCOC[C@H]1C(=O)N(C)CC(=O)N[C@@H](CCc2ccc(C(F)(F)F)c(Cl)c2)C(=O)N2CCC[C@H]2C(=O)NC2(CCCC2)C(=O)N(C)[C@@H](C2CCCCC2)C(=O)N(C)[C@H](C(=O)N2C3CCC2COC3)CC(=O)N(C)[C@@H](CC(F)(F)F)C(=O)N[C@@H]([C@@H](C)CC)C(=O)N(C)CC(=O)N(C)CC(=O)N1C` [Compound 943] ([NMeAbu(4,4,4-F3)]I[Sar][Sar][NMeS](Propyl)[Sar][hPhe(3-Cl-4-CF3)]P[Ac5c][NMeChg][NMeD]-{3Oxa8azabicyclo(3.2.1)octane}; lactam N-11), the IC50 in test [1] was 0.83 nM; in test [2], 100 to 500 nM.

`CC[C@H](C)[C@@H]1NC(=O)[C@H](CC(C)C)N(C)C(=O)C[C@@H](C)N(C)C(=O)[C@H](C(C)C)N(C)C(=O)C2(CCCC2)NC(=O)[C@@H]2CCCN2C(=O)[C@H](CCc2ccc(C(F)(F)F)c(Cl)c2)NC(=O)CN(C)C(=O)[C@H](CC2CC2)N(C)C(=O)CN(C)C(=O)CN(C)C1=O` [Compound 930] (cyclo([Ac5c][NMeV][NMedβ3hAla][NMeL]I[Sar][Sar][NMeAla(cPr)][Sar][hPhe(3-Cl-4-CF3)]P)): the half-maximal inhibitory concentration (IC50) in test [1] is 39 nM; in test [2], 100 to 500 nM.

Take `CC[C@H](C)[C@@H]1NC(=O)[C@H](CC(C)C)N(C)C(=O)C[C@@H](C)N(C)C(=O)[C@H](C2CCCCC2)N(C)C(=O)C2(CCCC2)NC(=O)[C@@H]2CCCN2C(=O)[C@H](CCc2ccc(C(F)(F)F)c(Cl)c2)NC(=O)CN(C)C(=O)[C@H](Cc2ccc(C)cc2)N(C)C(=O)[C@@H]2CCN2C(=O)[C@H](C)N(C)C1=O` [Compound 1673] (cyclo([Ac5c][NMeChg][NMedβ3hAla][NMeL]I[NMeA][Aze][NMePhe(4-Me)][Sar][hPhe(3-Cl-4-CF3)]P)): the IC50 was 5.4 nM in test [1] and 100 to 500 nM in test [2].

As to `CC[C@H](C)[C@@H]1NC(=O)[C@H](CC(C)C)N(C)C(=O)C[C@@H](C)N(C)C(=O)[C@H](C(C)C)N(C)C(=O)C2(CCCCC2)NC(=O)[C@@H]2CCCN2C(=O)[C@H](CCc2ccc(C(F)(F)F)c(Cl)c2)NC(=O)CN(C)C(=O)[C@H](CC2CCCCC2)N(C)C(=O)CN(C)C(=O)CN(C)C1=O` [Compound 81] (cyclo([Ac6c][NMeV][NMedβ3hAla][NMeL]I[Sar][Sar][NMeCha][Sar][hPhe(3-Cl-4-CF3)]P)), the values for the half-inhibitory concentration (IC50) in test [1] and in test [2] were 14 nM and 100 to 500 nM, respectively.

`CC[C@H](C)[C@@H]1NC(=O)[C@H](CC(C)C)N(C)C(=O)C[C@@H](C(=O)N2CCCCC2)N(C)C(=O)[C@H](C2CCCCC2)N(C)C(=O)C2(CCCC2)NC(=O)[C@@H]2CCCN2C(=O)[C@H](CCc2ccc(C(F)(F)F)c(Cl)c2)NC(=O)CN(C)C(=O)[C@H](CC(C)C)N(C)C(=O)CN(C)C(=O)CN(C)C1=O` [Compound 1652] ([NMeL]I[Sar][Sar][NMeL][Sar][hPhe(3-Cl-4-CF3)]P[Ac5c][NMeChg][NMeD]-Piperidide; lactam N-11): the half-maximal inhibitory concentration (IC50) was 3.1 nM in test [1] and 100 to 500 nM in test [2].
